Measurements taken from publication PMC10049495, “Antitumor Activity of PEGylated and TEGylated Phenothiazine Derivatives: Structure–Activity Relationship” (International Journal of Molecular Sciences, 2023).
pIC50: −log10 of the molar value. Where two headings read alike, the source gives them in different places.

Assays:
HepG2 = conditions: cited from earlier work
HeLa = conditions: cited from earlier work
CT-26 = conditions: cited from earlier work
MeWo = conditions: cited from earlier work
NHDF = system: NHDF; set-up: method as in earlier work; conditions: cited from earlier work
MCF-7 = conditions: reference cell empty, probably merged; cited from earlier work
[1] = system: normal human dermal fibroblasts (NHDF); assay: Cytotoxicity MTS assay on normal fibroblasts; type: cell-based; conditions: Homo sapiens, 48 h, tested 0.01-0.3 mM, read-out: Half maximal inhibition concentration (IC50)
Procedure: (§1) Cell culture: NHDF, HeLa, HOS, HepG2, MCF7, MeWo and CT-26 cells were cultivated in complete Eagle’s Minimal Essential Medium alpha (aMEM) containing a 1% Penicillin–Streptomycin–Amphotericin B mixture and a 10% fetal bovine serum under 5% CO2 humidified atmosphere at 37 °C. LN-229 cells were cultivated in DMEM with a 1% Penicillin–Streptomycin–Amphotericin B mixture and a 5% fetal bovine serum. U-118 cells were cultivated in DMEM with a 1% Penicillin–Streptomycin–Amphotericin B mixture and a 10% fetal bovine serum. StemPro™ Accutase™ Cell Dissociation Reagent was used for passaging MeWo and U-118 cells, and TrypLE Express was used for all other cell lines.
(§2) The working solutions were prepared by diluting the stock solutions with complete medium so that the final concentration of DMSO in the cell culture was 1%. The working solutions were used for incubation. Control cells were treated only with complete cell culture medium containing 1% DMSO.
(§3) Cytotoxicity MTS assay: In order to perform the MTS assay, cells were placed in culture-treated 96-well plates at densities of 5 × 10^3 cells/well (NHDF and CT-26), 7 × 10^3 cells/well (MCF7) and 10 × 10^3 cells/well (HOS, HeLa, HepG2, MeWo, LN-229, U-118) in 100 μL of a MEM medium/well and allowed to adhere for 24 h. After 24 h, the culture medium was replaced with the tested compound solutions at various concentrations, and the plates were incubated for another 48 h. Before the final reading, 20 μL CellTiter 96® Aqueous One Solution/well was added, and the plates were incubated for 1–4 h. Finally, the absorbance was recorded with a microplate reader at λ = 490 nm. The relative cell viability was expressed as a percentage of the viability of control, and the half maximal inhibitory concentration (IC50) was determined from the graphical representation of the cell viability vs. concentration. Graphical data were expressed as means ± standard error of the mean (S.E.M.). Statistical analysis was made with two-way ANOVA using Tukey’s multiple comparisons test. The difference was considered significant when p < 0.05. Data analysis was performed with GraphPad Prism software version 7.00 for Windows.

[2] = system: mouse colon carcinoma cell line (CT26); assay: Cytotoxicity MTS assay on CT-26; type: cell-based; conditions: for Selectivity index (SI): IC50 NHDF / IC50 CT-26; for pIC50: CT-26, 48 h
Procedure: as §1, §2, §3

[3] = system: cervical carcinoma (HeLa) cells; assay: Cytotoxicity MTS assay on HeLa; type: cell-based, human; conditions: for Selectivity index (SI): IC50 NHDF / IC50 HeLa
Procedure: as §1, §2, §3

[4] = system: liver cancer (HepG2) cells; assay: Cytotoxicity MTS assay on HepG2; type: cell-based, human; conditions: for pIC50: HepG2, 48 h; for Selectivity index (SI): IC50 NHDF / IC50 HepG2
Procedure: as §1, §2, §3

osteosarcoma (HOS) cells = assay: Cytotoxicity MTS assay on HOS; type: cell-based, human; conditions: Homo sapiens, 48 h, tested 0.01-0.3 mM, read-out: Half maximal inhibition concentration (IC50)
Procedure: as §1, §2, §3

[5] = system: glioblastoma (LN229) cells; assay: Cytotoxicity MTS assay on LN229; type: cell-based, human; conditions: Homo sapiens, LN-229, LN229, 48 h, tested 0.01-0.3 mM, read-out: Half maximal inhibition concentration (IC50)
Procedure: as §1, §2, §3

[6] = system: breast cancer (MCF7) cells; assay: Cytotoxicity MTS assay on MCF-7; type: cell-based, human; conditions: for pIC50: Homo sapiens, MCF7, MCF-7, 48 h, MTS, tested 0.01-0.3 mM, read-out: Half maximal inhibition concentration (IC50); for Selectivity index (SI): IC50 NHDF / IC50 MCF7
Procedure: as §1, §2, §3

[7] = system: malignant melanoma (MeWo) cells; assay: Cytotoxicity MTS assay on MeWo; type: cell-based, human; conditions: Homo sapiens; MeWo, 48 h, MTS; tested 0.01-0.3 mM; read-out: Half maximal inhibition concentration (IC50)
Procedure: as §1, §2, §3

[8] = system: glioblastoma cell line (U-118); assay: Cytotoxicity MTS assay on U-118; type: cell-based, human; conditions: Homo sapiens; U-118, 48 h, MTS; tested 0.01-0.3 mM; read-out: Half maximal inhibition concentration (IC50)
Procedure: as §1, §2, §3

[9] = DPPH radical scavenging activity; conditions: DPPH, 0.0019-1 mM
Text: In this light, the antioxidant activity of the studied phenothiazine derivatives was investigated using DPPH assay, measuring the dependence of the free radical inhibition on the concentration as highlighted by a decreasing of the absorbance of DPPH when the concentration of the compound is increasing. The results, expressed in percentage of inhibition, are represented in Figure 4.
Ex Vivo Radical Scavenging Activity: In order to evaluate antioxidant activity of the studied compounds, a bleaching method of the 1,1-diphenyl-2-picryl hydrazyl (DPPH) radical was used. Briefly, a stock solution of 2 mM of each compound in ethanol was prepared and then diluted to obtain 10 different concentrations from 1 mM to 0.0019 mM using a 96-well plate. The diluted solutions with different concentrations were mixed with an equal volume of ethanolic DPPH solution (0.05 mg/mL), and the mixtures were incubated in the dark at room temperature […] for 1 h. After incubation, the absorbance was read at 517 nm. Inhibition percentage was calculated using Equation (2), where Ac is the absorbance of the control sample (DPPH) and As is the absorbance of the mixtures. All measurements were made in triplicate. I % = (Ac-As)/Ac × 100 (2)

[10] = Glutamine imination/transimination (amino acid binding) followed by NMR; conditions: 1/1 molar ratio with glutamine, MEM medium, 37 °C, 48 h
Procedure: The ability of the studied compounds to bind amino acids by imitation or transamination processes was investigated for glutamine amino acid. To do this, all compounds were incubated in the presence of glutamine for 48 h in a MEM solution to simulate in vitro tests on cancer cell lines. After incubation, the water was removed by lyophilization, and the crude solid was analyzed by NMR. […] Additional information about imine formation was obtained from the H,C-HSQC spectrum (Figure S2). In this type of heteronuclear bidimensional spectrum, a proton–carbon direct bond correlation signal was obtained between the proton resonating at 8.15 ppm and the carbon resonating at 160.5 ppm.
The mixtures were incubated at 37 °C for 48 h in order to simulate the in vitro conditions of antitumor determinations. After the incubation, all the samples were lyophilized, dissolved in DMSO-d6 and subjected to NMR spectroscopy analysis. The samples that indicated the imine formation were further investigated by recording the ^1H, ^15N HMBC and ^1H, ^13C HSQC NMR spectra. The ^1H-NMR and ^1H, ^15N HMBC NMR spectra of the glutamine dissolved in a mixture of 9/1 H2O/D2O were also provided as reference in order to determine which nitrogen was involved in the imine linkage. After the NMR studies, the same samples were diluted with DMSO to obtain a solution of 0.33 mM in order to provide their UV-vis spectra.

[11] = Complex formation with Mg2+ (estimate of farnesyltransferase inhibition), FTIR/UV-vis; conditions: 2/1 compound/MgCl2, 2 days at 37 °C, FTIR and UV-vis; taken as estimate of farnesyltransferase inhibition
Procedure: To estimate the ability of the studied compounds to inhibit the FT, their ability to bind the Zn^2+ or Mg^2+ ions was investigated by incubation in similar conditions as in vitro antitumor tests. The experiments indicated the ability of TEGylated derivatives to bind Mg^2+ ions, as follows.
After that, all the solutions were lyophilized, and the solid samples obtained were subjected to the FTIR spectroscopy measurements. Then, the mixtures that indicated complex formation were dissolved in DMSO, and their UV-vis spectra were recorded.

[12] = Solubility test in water with 1% DMSO; type: physicochemical; conditions: water with 1% of DMSO, read-out: concentration up to which the compound is soluble
Procedure: Solubility tests were performed to establish the maximum concentration of the compounds that might be used for in vitro tests by dissolving 0.003 mmol of compound in 1mL of water (H2O) with 1% of DMSO. The amount of solvent was increased until the compound was completely dissolved. The volume of solvent corresponding to the solving point was used to calculate the concentration. The TEGylated compounds were soluble under 0.3 mM (PTF) and 0.2 mM (PTMA, PTEA), and PEGylated compounds were soluble at to a concentration of 2 mM.

[13] = Cytotoxicity MTS assay on normal fibroblasts; type: cell-based, human; conditions: human, normal human dermal fibroblasts (NHDF), read-out: cell viability
Procedure: as §1, §2, §3

[14] = Mus musculus, CT26, MTS, tested 0.01-0.3 mM, read-out: Half maximal inhibition concentration (IC50)
[15] = Homo sapiens, HeLa, 48 h, MTS, tested 0.01-0.3 mM, read-out: Half maximal inhibition concentration (IC50)
[16] = Homo sapiens, MTS, tested 0.01-0.3 mM, read-out: Half maximal inhibition concentration (IC50)

| Structure (SMILES) | pIC50 (HepG2) | pIC50 (CT-26) | pIC50 (MeWo) | pIC50 (NHDF) | pIC50 [1] | Selectivity index (SI) [2] | pIC50 [2, 14] | pIC50 [3, 15] | Selectivity index (SI) [3] | pIC50 [4, 16] | Selectivity index (SI) [4] | pIC50 (osteosarcoma (HOS) cells) | pIC50 [5] | pIC50 [6] | pIC50 [7] | pIC50 [8] | radical scavenging capacity (in words) [9] | ability to bind glutamine by imination/transimination (in words) [10] | ability to bind Mg^2+ ions (in words) [11] | solubility [12] [µM] | other results |
| --- | --- | --- | --- | --- | --- | --- | --- | --- | --- | --- | --- | --- | --- | --- | --- | --- | --- | --- | --- | --- | --- |
| O=c1[nH]cc(F)c(=O)[nH]1 [5-Florouracil] | 3.60 | 3.52 | 4.21 | 4.60 |  |  |  |  |  |  |  |  |  |  |  |  |  |  |  |  | pIC50 (HeLa; reference cell empty, probably merged): 3.17 |
| COc1cccc2c1C(=O)c1c(O)c3c(c(O)c1C2=O)C[C@@](O)(C(=O)CO)C[C@@H]3O[C@H]1C[C@H](N)[C@H](O)[C@H](C)O1 [Doxorubicin] | 5.99 | 5.00 | 4.06 | 6.86 |  |  |  |  |  |  |  |  |  |  |  |  |  |  |  |  | pIC50 (HeLa): 6.74; pIC50 (MCF-7): 7.15 |
| COCCOCCOCCN1c2ccccc2Sc2cc(/C=N/CCc3ccc(S(N)(=O)=O)cc3)ccc21 [PTEA] |  |  |  |  | 3.97 | 1.25 | 4.10 | 4.82 | 6.66 | 4.07 | 1.25 | < 3.52 | 3.74 | 3.86 | 3.62 | 3.77 | very low radical scavenging capacity | direct transimination | formation of dative bonds | < 200 |  |
| COCCOCCOCCN1c2ccccc2Sc2cc(C=O)ccc21 [PTF, 10-(triethylene glycol)-10H-phenothiazine-3-carbaldehyde] |  |  |  |  | 3.82 | 2.38 |  |  | 10 | 4.30 | 3 | < 3.52 | 3.73 | 3.97 | 3.83 | 3.72 | very low radical scavenging capacity |  | dative bond with magnesium | < 300 | viability at 48 h, 0.05 mM ([13]; 0.05 mM): 86%; viability at 48 h, 0.2 mM ([13]; 0.2 mM): 33%; viability at 100 µM ([2]; Mus musculus, CT26, CT-26, 0.1 mM, 48 h, MTS): 30%; pIC50 ([2]; Mus musculus, CT26, MTS, read-out: IC50): 4.20; viability at 50 µM ([3]; Homo sapiens, HeLa, 0.05 mM, 48 h, MTS, read-out: cell viability): 11%; pIC50 ([3]; Homo sapiens, HeLa, 48 h, MTS, read-out: IC50): 4.82; viability at 100 µM ([4]; Homo sapiens, HepG2, 0.1 mM, 48 h, MTS, read-out: cell viability): 27%; pIC50 ([4]; Homo sapiens, MTS, read-out: IC50): 4.28; Selectivity index (SI) [6]: 1.5 |
| COCCOCCOCCN1c2ccccc2Sc2cc(/C=N/Cc3ccc(S(N)(=O)=O)cc3)ccc21 [PTMA, 4-((((10-(triethylene glycol)-10H-phenothiazin-3-yl)methylene)amino)methyl)benzenesulfonamide] |  |  |  |  | 3.70 | 2 | 3.97 | 4.54 | 6.89 | 4.08 | 2.5 | < 3.52 | 3.66 | 3.85 | 3.54 | < 3.52 | very low radical scavenging capacity | glutamine binding process took places in two steps | formation of dative bonds | < 200 | Selectivity index (SI) [6]: 1.42 |
